Laboratory results: US20230321106A1, “USE OF TOPICAL BRAF INHIBITOR COMPOSITIONS FOR TREATMENT OF EPIDERMAL GROWTH FACTOR RECEPTOR DOWNSTREAM EFFECTORS - INDUCED CUTANEOUS REACTIONS” (Lutris Pharma Ltd., priority 2020, published 2023)
Entries after “also recorded” stand apart in the source; their conditions may differ.

Legend:
[1] = Phase 1 clinical trial: plasma pharmacokinetics (LC-MS/MS); assay type: in vivo, human; settings: patients, topical gel; for systemic absorption / exposure after topical administration: plasma
Experimental: Blood samples for PK analysis were taken from the initial three patients enrolled to each dosing cohort (total 9 patients). PK samples were collected pre-dose on day 0 and day 7 and at 1, 2, 4, 8 and 24 hours post-dose. A qualified liquid chromatography tandem mass spectroscopy LC-MS/MS analytical assay with an LLOQ of 10 pg/ml was used to determine concentrations of LUT014 in plasma. Plasma concentrations below the limit of quantitation (<10 pg/mL) were treated as zero for the calculations of mean (SD).
Tabular summaries of the secondary safety assessments included descriptive statistics (i.e., mean, standard deviation, median, and range for continuous data and frequency for categorical data) for each visit assessed, as well as for the calculated changes from baseline. For the pharmacokinetics analyses, plasma LUT014 concentration-time profiles were analyzed by non-compartmental methods and PK parameters were calculated by standard equations, when plasma levels are achieved. PK analyses produced using Phoenix® WinNonLin (Certara, Princeton, NJ). The efficacy assessments NCI CTCAE skin and subcutaneous tissue disorders grading scale, MASCC Study Group EGFR Inhibitor-dermatologic adverse event grading scale, FACT-EGFRI-13 questionnaire, were summarized by treatment group using descriptive statistics as appropriate (i.e., mean, standard deviation, median, and range for continuous data and frequency for categorical data). All analyses were performed using SAS® Software (version 9.2, SAS Institute, Cary, NC).

[2] = system: phosphorylated ERK1/2 (MAPK pathway) in HKGS-activated HEKa cells; assay: Reversal of EGFR inhibitor-mediated pERK inhibition in HKGS-activated HEKa cells, Western blot; assay type: cell-based, human; settings: two hours
Experimental: Primary HEKa, isolated from adult skin of a single donor and cryopreserved at the end of primary culture (Gibco catalog number C0055C, Thermo Fisher Scientific, Waltham, MA), were cultured in T25 flasks at 37° C., 5% CO2 in growth medium (Epilife™ CF Kit, Gibco) supplemented with 60 μM calcium (Gibco) and HKGS (Gibco). After at least three passages, cells were harvested with trypsin when flask reached 70-80% confluence, and seeded in 10 cm culture dishes (250,000 cells/dish) in 9 ml of growth medium overnight. To analyze the effect of HKGS or a BRAF inhibitor on pERK, cells were starved for 2.5 hours in 5 mL of starvation medium without HKGS, and then individual plates were incubated for two hours with DMSO 0.1%, HKGS, vemurafenib 0.3 μM (0.146 μg/mL), or LUT014 0.3 μM (0.158 μg/mL). […] Cells were harvested with 1 ml cold PBS containing EDTA-free, phosphatase inhibitor cocktail (MilliporeSigma, Burlington, MA) using a cell scraper. […] The signals of phosphorylated ERK1/2 and total ERK2 were quantified using ImageJ software and the phosphorylated ERK1/2/total ERK2 ratio was calculated. For the quantification, equal sized rectangles were drawn around the bands of the phosphorylated ERK1/2 and the total ERK2 and the pixels in each rectangle were measured.

[3] = Phase 1 clinical trial of topical LUT014 gel: safety and tolerability; assay type: in vivo, human
Excerpt: This was an open-label, dose escalation study of LUT014 gel topically administered for four weeks. A 2-week screening period (day −14 to day −1) was followed by a 4-week treatment period (day 0 to day 27). Patients applied the study drug once daily to their face, neck, chest, and upper back. The post-treatment safety follow-up period ran from day 28 to day 55. Additionally, two long term safety follow up visits were done 3 and 6 months after completion of treatment, including a dermatological exam to detect any potential BRAF inhibitor skin toxicities within the treatment area.
Three dose levels of LUT014 gel were tested: 0.3 mg/g, 1.0 mg/g and 2.5 mg/g. The dose of LUT014 was escalated in sequential dose cohorts of 3 to 6 patients, in a conventional 3+3 escalating dose design. Escalation to the next dose level was permitted if no DLT was reported by the three patients in the cohort within 4 weeks of receiving the first dose of LUT014. If one out of three patients developed a dose limiting toxicity (DLT), additional three patients were planned to be treated with study drug at the same dose level. At any given dose level, if more than one out of the three or six patients experienced a DLT within 4 weeks of receiving the first dose of LUT014, the dose level was determined to have exceeded the MTD, and the MTD was set to be the next lower dose.
A DLT was defined as any treatment-emergent grade 2 or higher clinically significant adverse event, with the exception of a transient grade 2 adverse event (i.e., one that returns to grade 1 or baseline within 7 days) or grade 2 adverse event that was manageable with standard of care (i.e., one that returns to grade 1 or baseline within 14 days), that occurred within 4 weeks of the first dose of study drug for which there was a reasonable possibility that LUT014 had caused the event. Upon completion of the 4-week treatment period of the third patient in each dosing cohort, a Safety Review Committee (SRC) meeting was set to review the safety data and to provide recommendation/decision on dose escalation/de-escalation, or expansion of dosing cohort.
Safety and tolerability were assessed primarily based on the adverse events from day 0 to day 55. In addition to the adverse events assessment, the safety measurements included physical examination, vital signs and body weight, 12-lead ECG, ECOG performance status, safety labs including complete blood count, comprehensive metabolic panel and urinalysis. At 3 and 6 months […] a dermatologist performed a skin assessment of the areas of the skin where LUT014 gel was applied to screen for potential cutaneous toxicities known to be associated with approved BRAF inhibitors, including erythema nodosum-type rash, photosensitivity, squamous papillomas or warts, keratoacanthomas, cutaneous squamous cell carcinoma, dry skin, and folliculitis or cysts (Welsh, et al., Therapeutic advances in medical oncology 7, 122-136, 2015).

[4] = system: MIA-PaCa-2 cells; assay: MIA-PaCa-2 cellular proliferation (ATP-lite, 72 hours); assay type: cell-based, human
Experimental: MIA-PaCa-2 cells (ATCC catalog number CRM-CRL-1420, Manassas, VA) were cultured at 37° C. in T75 flasks in growth medium DMEM (ATCC) supplemented with 10% FBS and 2.5% horse serum. After 4 days, when the flasks reached 50% confluence, cells were harvested with trypsin and seeded in 96 well plates at a concentration of 5000 cells/well, in a total volume of 0.1 ml/well starvation medium and incubated 24 hours at 37° C., 5% CO2. The next morning, medium was replaced with 180 μl growth medium (containing 10% FBS and 2.5% horse serum) and 20 μl of each concentration of LUT014, DMSO or PBS. Each concentration of each compound was added to triplicate wells. The plates were incubated for 72 hours at 37° C., 5% CO2. Cellular proliferation was measured using the ATP-lite proliferation assay (Perkin Elmer, Waltham, MA) following the manufacturer's instructions, with the luminescence measured using a CLARIOstar reader (BMG Labtech, Ortenberg, Germany), and analyzed with the ATPlite TOP program (Perkin Elmer).

[5] = system: anti-EGFR therapy-induced acneiform lesions; assay: Phase 1 clinical trial: efficacy on acneiform lesions (CTCAE, MASCC, FACT-EGFRI-13); assay type: in vivo, human
Experimental: Three scales were used to evaluate the severity of acneiform lesions during the clinical trial period. The primary readout was based on the National Cancer Institute (NCI) Common Terminology Criteria for Adverse Events (CTCAE) version 5.0 for grading acneiform rash. The clinical trial eligibility criteria were based on having an acneiform skin rash of grade 1 or 2 while on anti-EGFR therapy, and therefore the grading change from baseline with the topical application of LUT014 was measured. The Multinational Association of Supportive Care in Cancer (MASCC) Study Group EGFR Inhibitor-dermatologic adverse event grading scale is a central reviewer-assessment based on the review of pictures provided to one remote reviewer (Wong, et al., Support Care Cancer 21, 2933-2948, 2013). The Functional Assessment of Cancer Therapy (FACT) is a health-related quality of life questionnaire to assess symptoms associated with EGFR inhibitors (Wagner, et al., Support Care Cancer 21, 1033-1041, 2013). The score based on the 13 skin-specific questions (FACT-EGFRI-13) was reported, and was calculated by the change in total score relative to baseline, with a decrease in value representing worsening and an increase value representing improvement of skin-related symptoms.
Evaluation of the preliminary efficacy of LUT014 gel for the treatment of anti-EGFR therapy-induced acneiform lesions was based on the following: A) Acneiform lesions grading performed locally by the Investigator using the NCI CTCAE version 5.0 skin and subcutaneous tissue disorders grading scale. B) Acneiform lesions grading performed by a central reader, using the MASCC Study Group EGFR Inhibitor-dermatologic adverse event grading scale (Wong, et al., 2013). Grading was based on masked photographs of patients' face, neck, and upper portion of the anterior and posterior chest. C) Patient self-reported quality of life FACT-EGFRI-13 questionnaire (Wagner et al, 2013), assessing the physical and psychological effects of the dermatological symptoms associated with anti-EGFR treatment on study patients. Only the first 13 questions of the FACT-EGFRI that are relevant for the skin were evaluated. Data from all patients who received at least one dose of study drug were included in the safety and efficacy analyses.

[6] = system: phosphorylated ERK1/2 (MAPK pathway) in primary adult human epidermal keratinocytes (HEKa); assay: pERK induction in HEKa cells, Western blot (phosphorylated ERK1/2 / total ERK2); assay type: cell-based; settings: 0.3 μM, two hours
Experimental: Primary HEKa, isolated from adult skin of a single donor and cryopreserved at the end of primary culture (Gibco catalog number C0055C, Thermo Fisher Scientific, Waltham, MA), were cultured in T25 flasks at 37° C., 5% CO2 in growth medium (Epilife™ CF Kit, Gibco) supplemented with 60 μM calcium (Gibco) and HKGS (Gibco). After at least three passages, cells were harvested with trypsin when flask reached 70-80% confluence, and seeded in 10 cm culture dishes (250,000 cells/dish) in 9 ml of growth medium overnight. To analyze the effect of HKGS or a BRAF inhibitor on pERK, cells were starved for 2.5 hours in 5 mL of starvation medium without HKGS, and then individual plates were incubated for two hours with DMSO 0.1%, HKGS, vemurafenib 0.3 μM (0.146 μg/mL), or LUT014 0.3 μM (0.158 μg/mL). To analyze the effects of LUT014 to re-activate pERK in HKGS-activated HEKa cells cultured in an EGFR inhibitor, cells were seeded in 60 mm dishes (120,000 cells/dish) in 4 ml growth medium. […] The signals of phosphorylated ERK1/2 and total ERK2 were quantified using ImageJ software and the phosphorylated ERK1/2/total ERK2 ratio was calculated. For the quantification, equal sized rectangles were drawn around the bands of the phosphorylated ERK1/2 and the total ERK2 and the pixels in each rectangle were measured.

[7] = topical gel 0.3, 1.0, 2.5 mg/g once daily, 4 weeks, 10 patients

Cc1ccc2c(Nc3cccc(OC(F)(F)F)c3)nccc2c1Nc1ncccc1-c1ncnc2[nH]cnc12 [LUT014]
plasma concentrations lower than effective systemic concentrations of other BRAF inhibitors [1]: 3 to 4 orders of magnitude | plasma concentrations ([1]; day 0 and day 7): in the pg/mL range | systemic absorption / exposure after topical administration ([1]; day 0 and day 7): negligible absorption and minimal systemic exposure | systemic absorption / exposure after topical administration ([1]; day 0 and day 7, listed as compound of formula IV): negligible to minimal systemic absorption | effect on pERK inhibition by EGFR inhibitors (erlotinib, cetuximab) ([2]; HKGS plus EGFR inhibitor plus LUT014 0.3 μM): abrogated the inhibitory effect of both EGFR inhibitors | toxicities associated with oral systemic BRAF inhibitors (photosensitivity, maculo-papular rash, hyperkeratosis) ([3]; all cohorts): no local or systemic toxicities | patients with an adverse event considered related to the study drug ([3]; all cohorts, 10 patients, pruritus, dry skin, stinging sensation): Seven | Treatment-related adverse events: Dry skin, All Grades ([3]; human, in vivo, 4 weeks): 1 | Treatment-related adverse events: Dry skin, Grade 3 or 4 ([3]; human, in vivo, 4 weeks): 0 | Treatment-related adverse events: Local Pain, All Grades ([3]; human, in vivo, 4 weeks): 1 | Treatment-related adverse events: Local Pain, Grade 3 or 4 ([3]; human, in vivo, 4 weeks): 0 | Treatment-related adverse events: Pruritus, All Grades ([3]; human, in vivo, 4 weeks): 6 | Treatment-related adverse events: Pruritus, Grade 3 or 4 ([3]; human, in vivo, 4 weeks): 0 | severity grade of related adverse events ([3]; human, in vivo, 4 weeks): 1-2 | total adverse events of any attribution ([3]; human, in vivo, 4 weeks): 38 | dose-limiting toxicities [3, 7]: no dose-limiting toxicities; also recorded: no dose limiting toxicity | tolerability [3, 7]: well tolerated | concentration of peak proliferation [4]: 0.041 µM | proliferation at the highest concentrations [4]: growth arrest | time to CTCAE improvement ([5]; cohort 1, 0.3 mg/g): two of the patients showing improvement within the first week | FACT-EGFRI-13 skin-related symptom questionnaire change ([5]; cohort 1, 0.3 mg/g, 28-day treatment): the three patients had symptomatic improvement | benefit after administration had terminated ([5]; cohort 1, 0.3 mg/g, all three patients, day 55): sustained benefit by day 55 | acneiform rash CTCAE grade change ([5]; cohort 1, 0.3 mg/g, three patients with grade 2 at baseline, 28-day treatment): all improved to grade 1 | central reviewer MASCC grading change ([5]; cohort 1, 0.3 mg/g, treatment period): two patients improved and one patient did not change | acneiform skin rash, overall ([5]; cohort 2 (1.0 mg/g)): evidence of acneiform rash improvement | FACT-EGFRI-13 symptom questionnaire change ([5]; cohort 2, 1.0 mg/g, baseline grade 1 rash): two patients with baseline grade 1 rash reported stable skin-related symptoms | FACT-EGFRI-13 symptom questionnaire change ([5]; cohort 2, 1.0 mg/g, baseline grade 2 rash): two patients with baseline grade 2 rash improved symptoms | MASCC grading change ([5]; cohort 2, 1.0 mg/g, four patients): three patients improved grading during the treatment period while one worsened | acneiform rash CTCAE grade change ([5]; cohort 2, 1.0 mg/g, patients with grade 1 at baseline): two with grade 1 at baseline that did not change in grading | acneiform rash CTCAE grade change ([5]; cohort 2, 1.0 mg/g, patients with grade 2 at baseline, 28-day treatment): two with grade 2 at baseline that improved to grade 1 | FACT-EGFRI-13 symptom questionnaire change ([5]; cohort 3, 2.5 mg/g): one patient improved and two worsened | acneiform rash CTCAE grade change ([5]; cohort 3, 2.5 mg/g, three patients, 28-day treatment): one improved, another was stable and one patient had worsening acneiform skin rash | MASCC grading change ([5]; cohort 3, 2.5 mg/g, compared with the CTCAE course): The same course was evident | acneiform skin rash, overall ([5]; highest dose cohort (2.5 mg/g)): no consistent evidence of improvement | improvement of acneiform rash in grade 2 patients ([5]; low and intermediate cohorts (0.3 and 1.0 mg/g)): all grade 2 patients (six patients) | acneiform skin rash, overall by three assessment criteria ([5]; lowest dose cohort (0.3 mg/g)): improved in all patients | increase in pERK, compared with HKGS [6]: higher

C#Cc1cccc(Nc2ncnc3cc(OCCOC)c(OCCOC)cc23)c1 [erlotinib, reference compound]
HKGS stimulation of the MAPK pathway (pERK) ([2]; HKGS plus erlotinib 10 μM): partially inhibited
